This note sets out measurements from patent publication US10239849B2 (Merck Sharp & Dohme Corp., priority 2015, dated 2019).

Assay [1] has as its target T1, glutathione-S-transferase (GST) tagged LXRbeta LBD (ligand binding domain) (Homo sapiens, UniProt P55055).
T1 construct: purchased Invitrogen pv4658.pps
T1 sequence (P55055 222-460 limits assumed): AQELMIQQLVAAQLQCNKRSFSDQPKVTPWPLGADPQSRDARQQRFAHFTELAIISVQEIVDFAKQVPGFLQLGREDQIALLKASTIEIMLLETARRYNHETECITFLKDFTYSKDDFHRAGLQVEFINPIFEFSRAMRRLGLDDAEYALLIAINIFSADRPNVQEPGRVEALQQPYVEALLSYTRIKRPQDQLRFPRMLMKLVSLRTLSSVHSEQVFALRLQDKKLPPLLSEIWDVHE
Put plainly: LanthaScreen TR-FRET Liver X Receptor Coactivator Assay, LXR beta-LBD. Format: biochemical. The note with it: for Emax: efficacy in relation to reference dual agonist T1317, read-out: LXR beta activity at max dose (%) (Emax); for EC50: potency (Inflection Point) of co-activator recruitment, TR-FRET, read-out: LXR beta IP. The essentials: (§1)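 Test ligands were combined with the receptor LBD, after which terbium-labelled anti-GST antibody and a fluorescein-tagged coactivator peptide were introduced together. Plates sat at room temperature, then time-resolved FRET was measured.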
In general terms: Time-resolved FRET reads energy transfer from a long-lived donor to a nearby acceptor.

Assay [2] addresses T2, glutathione-S-transferase (GST) tagged LXRalpha LBD (ligand binding domain) (Homo sapiens, UniProt Q13133).
T2 construct: purchased Invitrogen pv4655
T2 sequence (Q13133 209-447 limits assumed): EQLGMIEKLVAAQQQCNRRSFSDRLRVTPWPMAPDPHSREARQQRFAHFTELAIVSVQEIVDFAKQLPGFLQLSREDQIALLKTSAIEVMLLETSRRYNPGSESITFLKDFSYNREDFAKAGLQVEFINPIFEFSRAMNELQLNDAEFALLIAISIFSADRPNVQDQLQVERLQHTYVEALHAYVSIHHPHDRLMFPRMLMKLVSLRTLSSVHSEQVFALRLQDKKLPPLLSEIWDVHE
Nature of the assay: LanthaScreen TR-FRET Liver X Receptor Coactivator Assay, LXR alpha-LBD. Format: biochemical. Conditions: for Emax: efficacy in relation to reference dual agonist T1317, read-out: LXR alpha activity at max dose (%) (Emax); for EC50 / LXR alpha IP (nM): potency (Inflection Point) of co-activator recruitment, TR-FRET; for EC50: read-out: LXR alpha IP. The essentials: as §1

In general, Emax refers to the size of the effect at its maximum, as opposed to the concentration needed. Turning to `Cc1ccccc1COC(=O)N1CCN(c2ncc(-c3ccc(C(=O)N(C)C)c(Cl)c3)cc2C#N)CC1` [Example 3-4, 2-methylbenzyl 4-{5-[3-chloro-4-(dimethylcarbamoyl)phenyl]-3-cyanopyridin-2-yl}piperazine-1-carboxylate], in assay [1], the Emax is 86% and the EC50 stood at 0.087 µM. Further, in assay [2], the Emax is 122% and the EC50 was found to be 2.82 µM.

`CN(C)C(=O)c1ccc(-c2cnc(N3CCN(S(=O)(=O)c4ccccc4OC(F)(F)F)CC3)c(C#N)c2)cc1Cl` [Example 1-14, 2-chloro-4-[5-cyano-6-(4-{[2-(trifluoromethoxy)phenyl]sulfonyl}piperazin-1-yl)pyridin-3-yl]-N,N-dimethylbenzamide]: in assay [1], the Emax was 99% and the EC50 came out at 0.02 µM. Further, in assay [2], the Emax was 37% and the EC50 was determined as 1.05 µM.

`Cc1cc(CC(=O)N2CCN(c3ncc(-c4ccc(C(=O)N(C)C)c(Cl)c4)cc3C#N)CC2)on1` [Example 2-8, 2-chloro-4-(5-cyano-6-{4-[(3-methylisoxazol-5-yl)acetyl]piperazin-1-yl}pyridin-3-yl)-N,N-dimethylbenzamide]: in assay [1], the Emax amounted to 46% and the EC50 was 4.17 µM. In assay [2], the Emax amounted to 5% and the “LXR alpha IP (nM)” value was “No IP”.

For the compound `CN(C)C(=O)c1ccc(-c2ccc(N3CCN(S(=O)(=O)c4c(Cl)cccc4Cl)CC3)c(Cl)c2)cc1Cl` [Example 4-8, 3,3′-dichloro-4′-{4-[(2,6-dichlorophenyl)sulfonyl]piperazin-1-yl}-N,N-dimethylbiphenyl-4-carboxamide], in assay [1], the Emax turned out to be 101% and the EC50 was determined as 2.82 µM. For the same compound, in assay [2], the Emax stood at 38% and the EC50 is 10.5 µM.

In the case of `CN(CC#N)C(=O)c1ccc(-c2cnc(N3CCN(C(=O)OC(C)(C)C)CC3)c(C#N)c2)cc1Cl` [Example 5-8, tert-butyl 4-(5-{3-chloro-4-[(cyanomethyl) (methyl)carbamoyl]phenyl}-3-cyanopyridin-2-yl)piperazine-1-carboxylate], the results for the Emax in assay [1] and in assay [2] were 91% and 58%, respectively. The EC50 in assay [1] was 0.17 µM; in assay [2] it was 14.9 µM.

Regarding `CN(C)C(=O)c1ccc(-c2cnc(N3CCN(S(=O)(=O)c4cccnc4)CC3)c(C#N)c2)cc1Cl` [Example 1-5, 2-chloro-4-{5-cyano-6-[4-(pyridin-3-ylsulfonyl)piperazin-1-yl]pyridin-3-yl}-N,N-dimethylbenzamide], the Emax came out at 85% in assay [1] and 31% in assay [2]. In addition, the EC50 was 0.939 µM in assay [1] and 60.5 µM in assay [2].

Turning to `CN(C)C(=O)c1ccc(-c2ccc(N3CC4CCC(C3)N4S(=O)(=O)c3c(Cl)cccc3Cl)cc2)cc1Cl` [Example 8-14, 3-chloro-4′-{8-[(2,6-dichlorophenyl)sulfonyl]-3,8-diazabicyclo[3.2.1]oct-3-yl}-N,N-dimethylbiphenyl-4-carboxamide], the Emax was found to be 118% in assay [1] and 37% in assay [2]. Moreover, the EC50 in assay [1] turned out to be 0.076 µM; in assay [2], 3.47 µM.

With `CN(C)C(=O)c1ccc(-c2cnc(N3CC4CCC(C3)N4C(=O)OC(C)(C)C)c(C#N)c2)cc1Cl` [Example 8-7, tert-butyl 3-{5-[3-chloro-4-(dimethylcarbamoyl)phenyl]-3-cyanopyridin-2-yl}-3,8-diazabicyclo[3.2.1]octane-8-carboxylate], in assay [1], the Emax came out at 71% and the EC50 came out at 0.031 µM. In assay [2], the Emax was 52% and the EC50 came to 1.64 µM.

`CN(C)C(=O)c1ccc(-c2ccc(N3CCN(C(=O)c4ccccc4Cl)CC3)c(Cl)c2)cc1Cl` [Example 4-4, 3,3′-dichloro-4′-{4-[(2-chlorophenyl)carbonyl]piperazin-1-yl}-N,N-dimethylbiphenyl-4-carboxamide]: in assay [1], the Emax turned out to be 75% and the EC50 was determined as 0.098 µM. Moreover, in assay [2], the maximal response (Emax) worked out at 44% and the EC50 is 1.31 µM.

As to `CC(C)C(O)(C(=O)N1CCN(c2ncc(-c3cc(Cl)c(C(=O)N(C)C)c(Cl)c3)cc2C#N)CC1)C(F)(F)F` (single isomer, unassigned) [Example 7-5, 2,6-dichloro-4-(5-cyano-6-{4-[2-hydroxy-3-methyl-2-(trifluoromethyl)butanoyl]piperazin-1-yl}pyridin-3-yl)-N,N-dimethylbenzamide], in assay [1], the Emax is 93% and the EC50 is 0.012 µM. For the same compound, in assay [2], the Emax worked out at 41% and the EC50 was found to be 0.929 µM.

Consider `CN(C)C(=O)c1ccc(-c2cnc(N3CCN(C(=O)OC(C)(C)C)CC3)c(C#N)c2)cc1C1CC1` [Example 9-4, tert-butyl 4-{3-cyano-5-[3-cyclopropyl-4-(dimethylcarbamoyl)phenyl]pyridin-2-yl}piperazine-1-carboxylate], for which the Emax in assay [1] came out at 68%; in assay [2], 39%. Moreover, the EC50 stood at 0.676 µM in assay [1] and 4.63 µM in assay [2].

`CN(C)C(=O)c1ccc(-c2ccc(N3CCN(S(=O)(=O)c4c(Cl)cccc4C(F)(F)F)CC3)cc2)cc1Cl` [Example 4-14, 3-chloro-4′-(4-{[2-chloro-6-(trifluoromethyl)phenyl]sulfonyl}piperazin-1-yl)-N,N-dimethylbiphenyl-4-carboxamide]: the Emax in assay [1] was determined as 88%; in assay [2], 25%. The results for the EC50 in assay [1] and in assay [2] were 0.549 µM and 9.81 µM, respectively.

`CO[C@@](C(=O)N1CCN(c2ncc(-c3ccc(C(=O)N(C)C)c(Cl)c3)cc2C#N)CC1)(c1ccccc1)C(F)(F)F` [Example 2-35, 2-chloro-4-(5-cyano-6-{4-[(2R)-3,3,3-trifluoro-2-methoxy-2-phenylpropanoyl]piperazin-1-yl}pyridin-3-yl)-N,N-dimethylbenzamide]: in assay [1], the Emax was determined as 70% and the EC50 came to 0.075 µM. In assay [2], the Emax was determined as 62% and the EC50 stood at 54.1 µM.

Regarding `CN(C)C(=O)c1ccc(-c2ccc(N3CCN(C(=O)c4c(F)cccc4F)CC3)cc2)cc1Cl` [Example 4-16, 3-chloro-4′-{4-[(2,6-difluorophenyl)carbonyl]piperazin-1-yl}-N,N-dimethylbiphenyl-4-carboxamide], in assay [1], the Emax was 77% and the EC50 worked out at 4.16 µM. For the same compound, in assay [2], the Emax came out at 19% and the “LXR alpha IP (nM)” value was “No IP”.

Regarding `CN(C)C(=O)c1ccc(-c2cnc(N3CCN(S(=O)(=O)C(F)F)CC3)c(C#N)c2)cc1Cl` [Example 1-3, 2-chloro-4-(5-cyano-6-{4-[(difluoromethyl)sulfonyl]piperazin-1-yl}pyridin-3-yl)-N,N-dimethylbenzamide], the Emax worked out at 93% in assay [1] and 52% in assay [2]. Besides, the figures for the EC50 in assay [1] and in assay [2] were 0.2 µM and 10.5 µM, respectively.

Turning to `CN(C)C(=O)c1ccc(-c2cnc(N3CCN(C(=O)C4Cc5ccccc54)CC3)c(C#N)c2)cc1Cl` (stereo not shown) [Example 2-13, 4-{6-[4-(bicyclo[4.2.0]octa-1,3,5-trien-7-ylcarbonyl)piperazin-1-yl]-5-cyanopyridin-3-yl}-2-chloro-N,N-dimethylbenzamide], the Emax in assay [1] is 108%; in assay [2], 50%. Further, the EC50 was found to be 0.057 µM in assay [1] and 8.05 µM in assay [2].
